Experiment [1] has as its system colon adenocarcinoma (CAC). Kind of experiment: Antitumor activity on transplantable tumor. Format: in vivo, mice. As to the method:
(§1) The mice and rats were purchased from the Experimental Animal Division of the Blokhin Russian Oncologic Center, the Russian Academy of Medicinal Sciences, and maintained on an ordinary food ration.
(§2) Sunflower seed oil was used as the solvent for the pharmaceutical.
(§3) Cisplatin purchased from Bristol-Myers Squibb was used in the experiments.
(§4) Abisilin was administered to animals orally every day for 10 days, or in the following schedule: on the 2nd and 6th days or on the 2nd and 11th days. […] In the combined treatment, Abisilin was administered to mice orally every day for 10 days, beginning 48 h after tumor transplantation, in a dose of 50 mg/kg; the antitumor agent Cisplatin was administered once intraperitonially (ip) in a dose of 5 mg/kg. Animals bearing the aforementioned tumors were monitored until they died. The antitumor effects of the pharmaceutical were judged from percentage tumor growth inhibition (TGI, %) in the experimental animals against control animals.
(§5) The statistical significance of the antitumor effect against the untreated control was determined by the Fisher-Student test. The difference between the compared groups was regarded as statistically reliable when p≦0.05.

For experiment [2], the system named is melanoma B-16. Kind of experiment: Antitumor activity on transplantable tumor. Format: in vivo, mice. To be noted: Abisilin 50 mg/kg per os days 2-11 and/or Cisplatin 5 mg/kg once day 2. As to the method:
as §1, §2, §3, §4, §5

In experiment [3] the test system is breast adenocarcinoma Ca-755. Kind of experiment: Antitumor activity on transplantable tumor. Format: in vivo, mice. To be noted: Abisilin 50 mg/kg per os days 2-11 and/or Cisplatin 5 mg/kg once day 2. As to the method:
as §1, §2, §3, §4, §5

Experiment [4] deals with metastatic colorectal cancer. To be noted: patients bearing metastatic colorectal cancer; increase from 15.6 months; cited from earlier work.

Turning to `N.N.[Cl][Pt][Cl]` [Cisplatin], the TGI (commonly how far tumour growth fell short of that in controls) is given as 0% in experiment [1] (day 7, Abisilin 50 mg/kg per os days 2-11 and/or Cisplatin 5 mg/kg once day 2); 22% in experiment [1] (day 12, Abisilin 50 mg/kg per os days 2-11 and/or Cisplatin 5 mg/kg once day 2); 14% in experiment [1] (day 21, Abisilin 50 mg/kg per os days 2-11 and/or Cisplatin 5 mg/kg once day 2); 35% in experiment [1] (day 22, Cisplatin 5 mg/kg once day 2); 80% in experiment [2] (day 7); 83% in experiment [2] (day 9). The TGI in experiment [2] (day 11) is listed as 65%; in experiment [2] (day 17), 19%; in experiment [3] (day 7), 86%; in experiment [3] (day 11), 62%; in experiment [3] (day 14), 52%; in experiment [3] (day 18), 43%. This compound returned a tumour growth inhibition (TGI) in experiment [3] (day 22) of 39%. In experiment [1] (monotherapy, Abisilin 50 mg/kg, Cisplatin 5 mg/kg), the “sensitivity of the tumor in monotherapy” value is on record as “insensitive”.
Turning to “Avastin: monoclonal antibody drug binding vascular endothelial growth factor (VEGF); active substance bevacizumab”, the total survival period in experiment [4] is 20.3 months.
